These results are taken from BindingDB's records for patent WO2022098807 (Merck Sharp &Amp, 2022).

For orientation: IC50 means the concentration that gives 50% inhibition. High values mean weaker potency in that assay, low ones greater potency in that assay.

The target of the experiment is Mitogen-activated protein kinase kinase kinase kinase 1 (Homo sapiens, UniProt Q92918). The experiment in a line: HPK1-SLP76 TR-FRET ASSAY. On the technique in general: TR-FRET usually uses a lanthanide donor and a delayed reading to cut background.
Mitogen-activated protein kinase kinase kinase kinase 1, sequence (Q92918 whole entry): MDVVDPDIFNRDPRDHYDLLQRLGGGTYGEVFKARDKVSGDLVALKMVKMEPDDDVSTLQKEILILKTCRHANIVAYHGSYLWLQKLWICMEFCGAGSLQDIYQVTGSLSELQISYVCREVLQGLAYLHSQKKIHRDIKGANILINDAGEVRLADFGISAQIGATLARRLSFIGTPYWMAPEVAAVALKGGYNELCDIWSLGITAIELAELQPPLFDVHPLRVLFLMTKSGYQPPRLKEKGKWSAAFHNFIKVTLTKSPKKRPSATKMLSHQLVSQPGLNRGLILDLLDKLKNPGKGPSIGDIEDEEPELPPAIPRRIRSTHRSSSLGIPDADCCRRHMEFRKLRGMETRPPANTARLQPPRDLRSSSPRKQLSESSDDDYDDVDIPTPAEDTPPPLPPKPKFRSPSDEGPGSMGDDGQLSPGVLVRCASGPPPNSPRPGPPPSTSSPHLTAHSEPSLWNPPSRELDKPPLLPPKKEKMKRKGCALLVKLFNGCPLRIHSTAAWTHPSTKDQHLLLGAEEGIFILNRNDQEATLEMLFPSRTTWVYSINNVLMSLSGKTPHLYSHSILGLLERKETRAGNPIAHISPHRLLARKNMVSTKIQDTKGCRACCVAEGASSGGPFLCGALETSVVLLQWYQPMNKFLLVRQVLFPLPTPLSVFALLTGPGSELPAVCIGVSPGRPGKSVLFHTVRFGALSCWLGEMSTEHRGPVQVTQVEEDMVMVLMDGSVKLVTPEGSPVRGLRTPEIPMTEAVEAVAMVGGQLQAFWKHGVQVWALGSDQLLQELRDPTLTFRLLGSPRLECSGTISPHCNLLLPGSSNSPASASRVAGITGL
The compound `Cc1c(-c2ccc3cnc(Nc4cnn(C5CC6(C5)CC(C5(C)COC5)C6)c4)nc3c2)cnc2c1NCCO2` (stereo not given) [WO2022098807, Example 1-2] showed an IC50 of 220 pM.
`Cc1c(-c2ccc3cnc(Nc4cc5n(n4)CCN(C(C)(C)O)C(=O)C5)nc3c2)cnc2c1NCCO2` [WO2022098807, Example 1-8] returned an IC50 of 670 pM.
For `Cc1c(-c2cc3nc(Nc4cnn(C5(C)CC5)c4)ncc3c(N)c2F)cnc2c1NCCO2` [WO2022098807, Example 2-8] the value was 90 pM.
`Cc1c(-c2cc3nc(Nc4cnn(C5CCNCC5)c4)ncc3c(N)c2F)cnc2c1NCCO2` [WO2022098807, Example 2-11] returned an IC50 of 70 pM.
The figure for `Cc1c(-c2cc3nc(Nc4cnn([C@@H]5CCN(C)C5=O)c4)ncc3c(N)c2F)cnc2c1NCCO2` [WO2022098807, Example 2-19] is 150 pM.
For `Cc1c(-c2cc3nc(Nc4cc5n(n4)CCN(C(C)C)C(=O)C5)ncc3c(N)c2F)cnc2c1NCCO2` [WO2022098807, Example 2-20], the IC50 was 60 pM.
The figure for `Cc1c(-c2cc3nc(Nc4cnn([C@H]5CCN(C)C5=O)c4)ncc3c(N)c2F)cnc2c1NCCO2` [WO2022098807, Example 2-21] is 350 pM; for `CCn1cc(Nc2ncc3c(N)c(F)c(-c4cnc5c(c4C)NCCO5)cc3n2)cn1` [WO2022098807, Example 2-22] it is 80 pM; for `CNC(=O)C12CC(n3cc(Nc4ncc5c(N)c(F)c(-c6cnc7c(c6C)NCCO7)cc5n4)cn3)(C1)C2` [WO2022098807, Example 2-28] it is 90 pM.
For `Cc1c(-c2cc3nc(Nc4cnn(C)c4C)ncc3c(N)c2F)cnc2c1NCCO2` [WO2022098807, Example 2-30] the value was 50 pM; for `Cc1c(-c2cc3nc(Nc4cnn(CC(F)F)c4)ncc3c(N)c2F)cnc2c1NCCO2` [WO2022098807, Example 2-32], 50 pM; for `Cc1nn(C)cc1Nc1ncc2c(N)c(F)c(-c3cnc4c(c3C)NCCO4)cc2n1` [WO2022098807, Example 2-34], 60 pM.
For `Cc1c(-c2cc3nc(Nc4cnn5c4CCC5)ncc3c(N)c2F)cnc2c1NCCO2` [WO2022098807, Example 2-35] the value was 50 pM; for `Cc1cnsc1Nc1ncc2c(N)c(F)c(-c3cnc4c(c3C)NCCO4)cc2n1` [WO2022098807, Example 2-37], 70 pM; for `Cc1c(-c2cc3nc(Nc4cnn(C5COC5)c4)ncc3c(N)c2F)cnc2c1NCCO2` [WO2022098807, Example 2-39], 50 pM.
`Cc1c(-c2c(F)c(N)c3cnc(Nc4cnn(C5CCN(C)CC5)c4)nc3c2Cl)cnc2c1NCCO2` [WO2022098807, Example 2-44]: inhibition was half-maximal at 50 pM (IC50).
The figure for `Cc1c(-c2c(F)c(N)c3cnc(Nc4cnn(C5CC5)c4C)nc3c2Cl)cnc2c1NCCO2` [WO2022098807, Example 2-45] is 180 pM.
For `Cc1c(-c2cc3nc(Nc4cnn(C56CC(C(C)(C)O)(C5)C6)c4)ncc3c(N)c2F)cnc2c1NCCO2` [WO2022098807, Example 2-46] the value was 50 pM.
For `Cc1c(-c2c(F)c(N)c3cnc(Nc4cnn([C@H]5CCN(C)C5)c4)nc3c2Cl)cnc2c1NCCO2` [WO2022098807, Example 2-47] the value was 180 pM; for `Cc1c(-c2c(F)c(N)c3cnc(Nc4cnn([C@@H]5CCN(C)C5)c4)nc3c2Cl)cnc2c1NCCO2` [WO2022098807, Example 2-48], 170 pM.
